Patent US20040019018A1, “Rigid pyrrolidone modulators of pkc” (priority 2003, published 2004)

Experiments:
[1] = target: T1, δ-PKC (Homo sapiens, UniProt Q05655); experiment: [3H]PDBu displacement from recombinant PKC isozyme (baculovirus); type: binding; settings: [3H]PDBu competition
T1 construct: made in house; host or cells: Sf9 cells (baculovirus)
Method: (§1) These procedures are described below. […] (See the key that follows)
(§2) Analysis of [20-^3H]phorbol 12,13-dibutyrate binding to PKC. […] [^3H]PDBu (20.0 Ci/mmol) was obtained from New England Nuclear. Phosphatidylserine and bovine […] were obtained from Sigma Chemical Co. Binding was determined in an incubation volume of 250 μl, containing [^3H]PDBu, PKC, 0.05 M Tris-Cl, pH 7.4, 100 μg/ml phosphatidylserine, various concentrations of the ligand being assayed for competition of [^3H]PDBu binding, and bovine […] at 1 mg/ml. In the case of the classical PKCs (α, β, […]) CaCl2 was included at a concentration of 0.1 mM. Liposomes of phosphatidylserine were prepared as follows. The phosphatidylserine solutions were dried down from CHCl3 under a stream of N2. After addition of 0.05 M Tris-Cl, pH 7.4, liposomes were prepared by sonication for 30 sec with the microtip probe of Sonifier Cell Disrupter (Heat Systems-Ultrasonics). [^3H]PDBu was used at a concentration twice the Kd previously determined for the specific receptor. Ligands were assayed over a concentration range of 3 orders of magnitude. Ligands were diluted in 0.05 M Tris-Cl, pH 7.4 containing 1 mg/ml bovine g-globulin. If the compounds were not soluble at the highest concentration used, they were dissolved in organic solvent (CHCl3 or ethanol) and mixed with the phosphatidylserine dissolved in CHCl3. The solvent was removed under a stream of N2.
(§3) Mixed liposomes were then prepared, as described for the preparation of the liposomes of phosphatidylserine alone, by the addition of 0.05 M Tris-Cl, pH 7.4, and sonication for 30 sec with the microtip probe of a Sonifier Cell Disrupter (Heat Systems-Ultrasonics). Incubation was for 5 min at 37° C. […] After vigorous mixing, the samples were incubated for 15 min to allow precipitation of the receptor. The precipitate was recovered by centrifugation at 12,000 rpm in a Beckman microcentrifuge at 4° C. […] This value provided a measure of the concentration of unbound [^3H]PDBu. The remainder of the supernatant was removed by aspiration and blotting with absorbent tissue. The tip of the centrifuge tube was cut off and the radioactivity in the pellet measured to determine total bound [^3H]PDBu. Non-specific binding of [^3H]PDBu was measured in the presence of 30 μM non-radioactive PDBu and used to determine an apparent partition coefficient for [^3H]PDBu under these assay conditions.
(§4) Specific binding represents the difference between total binding and the non-specific binding, where the latter value was calculated from the partition coefficient and the measured free [^3H]PDBu concentration in each tube. In each experiment, triplicate determinations were performed at each concentration of competing ligand. A half-maximal inhibitory concentration of inhibitor and a Ki for the inhibitor was determined by computer fit of the data points to the equation B(I)/B(O)=(L+Kd)/(Kd+(Kd/Ki)(I)+L), where B(I) represents the amount of [^3H]PDBu specifically bound in the presence of inhibitor, B(O) represents the amount specifically bound in the absence of inhibitor, L is the concentration of [^3H]PDBu, Kd is the measured dissociation constant for [^3H]PDBu, Ki is the dissociation constant for the inhibitor, and I is the concentration of inhibitor.
(§5) Expression of PKC isozymes in baculovirus. […] After 60-72 hr, the cells were centrifuged (1000 rpm, 10 min) and washed twice with phosphate buffered saline, and the pelleted cells kept at −70° C. until used.
(§6) For purification of the individual PKC isozymes, the cell pellet was resuspended in […] of a homogenization buffer of the following composition; 20 mM Tris-Cl, pH 8.0, 5 mM EDTA, 5 mM EGTA, 0.3% (v/v) 2-mercaptoethanol, 10 mM benzamidine, 50 μg/ml phenylmethylsulfonyl fluoride, and 250 μg/ml leupeptin. The cells were disrupted in a Potter-Elvehjem homogenizer at 4° C., and the homogenate is centrifuged at 100,000×g for 60 min.

[2] = target: T2, β-PKC (Homo sapiens, UniProt P05771); experiment: as above; type: binding; settings: [3H]PDBu competition
T2 construct: made in house; host or cells: Sf9 cells (baculovirus)
Method: as §1, §2, §3, §4, §5, §6

T2 sequence (P05771 whole entry): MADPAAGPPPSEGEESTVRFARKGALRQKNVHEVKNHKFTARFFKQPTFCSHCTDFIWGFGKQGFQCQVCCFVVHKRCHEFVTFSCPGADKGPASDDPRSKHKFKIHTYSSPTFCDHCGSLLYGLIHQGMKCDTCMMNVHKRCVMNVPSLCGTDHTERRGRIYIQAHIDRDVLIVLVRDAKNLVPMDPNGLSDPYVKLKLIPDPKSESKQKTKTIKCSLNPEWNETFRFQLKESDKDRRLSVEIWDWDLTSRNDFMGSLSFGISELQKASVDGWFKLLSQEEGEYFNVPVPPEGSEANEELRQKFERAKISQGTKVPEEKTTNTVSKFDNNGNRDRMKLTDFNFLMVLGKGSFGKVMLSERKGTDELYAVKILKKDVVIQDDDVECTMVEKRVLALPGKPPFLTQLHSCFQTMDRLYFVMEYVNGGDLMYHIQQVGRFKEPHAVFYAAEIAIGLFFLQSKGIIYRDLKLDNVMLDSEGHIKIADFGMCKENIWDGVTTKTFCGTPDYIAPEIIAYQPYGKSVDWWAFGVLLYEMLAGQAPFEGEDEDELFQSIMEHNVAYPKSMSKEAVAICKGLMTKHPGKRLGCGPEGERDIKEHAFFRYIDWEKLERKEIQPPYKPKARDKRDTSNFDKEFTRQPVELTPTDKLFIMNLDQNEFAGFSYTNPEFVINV
T1 sequence (Q05655 whole entry): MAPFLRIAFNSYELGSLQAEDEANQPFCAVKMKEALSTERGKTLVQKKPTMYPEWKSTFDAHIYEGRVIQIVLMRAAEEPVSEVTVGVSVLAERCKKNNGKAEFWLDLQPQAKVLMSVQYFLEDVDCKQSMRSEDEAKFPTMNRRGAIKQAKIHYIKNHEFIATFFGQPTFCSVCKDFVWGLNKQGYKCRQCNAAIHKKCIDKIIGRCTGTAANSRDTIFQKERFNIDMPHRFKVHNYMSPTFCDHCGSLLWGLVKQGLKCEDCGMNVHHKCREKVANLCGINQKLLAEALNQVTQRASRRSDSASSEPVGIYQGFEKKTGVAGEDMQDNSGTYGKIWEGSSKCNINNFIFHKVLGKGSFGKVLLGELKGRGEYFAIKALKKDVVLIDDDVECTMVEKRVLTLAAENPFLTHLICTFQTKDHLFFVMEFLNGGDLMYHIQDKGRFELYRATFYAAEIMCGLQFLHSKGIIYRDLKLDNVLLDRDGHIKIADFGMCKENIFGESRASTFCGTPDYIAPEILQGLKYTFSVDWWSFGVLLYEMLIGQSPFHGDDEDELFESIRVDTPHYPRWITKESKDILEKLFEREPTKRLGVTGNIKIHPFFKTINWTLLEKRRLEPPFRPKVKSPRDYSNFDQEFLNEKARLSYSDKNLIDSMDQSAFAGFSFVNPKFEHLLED

Ki [1] [nM] | Ki [2] [nM] | Structure (SMILES)
1630 ± 391 | – | CCCCCCCCC#Cc1ccc2c(c1)C(C)(C(C)C)C1C(=O)NC(CO)C21 [Compound 1, (3S, 8R, 9S, 10S)-6-(dec-1′-ynyl)-3-hydroxymethyl-8-isopropyl-8-methyl-3,3a,8,8a-tetrahydro-2H-2-aza-cyclopenta[a]inden-1-one]
4370 ± 214 | 8490 ± 3310 | CCCCCCCCCCCC(=O)Oc1cc2c(cc1C(C)=O)[C@@H]1[C@@H](CO)NC(=O)[C@@H]1[C@]2(C)C(C)C [Compound 4, (3S, 8S, 9S, 10S)-5-acetyl-6-dodecanoyloxyl-3-hydroxymethyl-8-isopropyl-8-methyl-3,3a,8,8a-tetrahydro-2H -2-aza-cyclopenta[a]inden-1-one]
623 ± 318 | 1610 ± 257 | CCCCCCCCCCCC(=O)Oc1cc2c(cc1Br)[C@@H]1[C@@H](CO)NC(=O)[C@@H]1[C@]2(C)C(C)C [Compound 5, (3S, 8S, 9S, 10S)-5-bromo-6-dodecanoyloxyl-3-hydroxymethyl-8-isopropyl-8-methyl-3,3a,8,8a-tetrahydro-2H -2-aza-cyclopenta[a]inden-1-one]
– | > 10000 | CCCCCCCCCCCC(=O)Oc1cc2c(cc1C(C)=O)[C@@H]1[C@@H](CO)NC(=O)[C@@H]1[C@@]2(C)C(C)C [Compound 11, (3S, 8R, 9S, 10S)-5-acetyl-6-dodecanoyloxyl-3-hydroxymethyl-8-isopropyl-8-methyl-3,3a,8,8a-tetrahydro-2H -2-aza-cyclopenta[a]inden-1-one]

Structure (SMILES) | Ki [1] [nM] | Ki [2] [nM]
CCCCCCCCCCCC(=O)Oc1ccc2c(c1)[C@](C)(C(C)C)[C@H]1C(=O)N[C@H](CO)[C@@H]21 [Compound 2, (3S, 8R, 9S, 10S)-6-dodecanoyloxyl-3-hydroxymethyl-8-isopropyl-8-methyl-3,3a,8,8a-tetrahydro-2H -2-aza-cyclopenta[a]inden-1-one] | 1370 ± 329 | 593 ± 178
CCCCCCCCCCCC(=O)Oc1ccc2c(c1)[C@@](C)(C(C)C)[C@H]1C(=O)N[C@H](CO)[C@@H]21 [Compound 3, (3S, 8S, 9S, 10S)-6-dodecanoyloxyl-3-hydroxymethyl-8-isopropyl-8-methyl-3,3a,8,8a-tetrahydro-2H -2-aza-cyclopenta[a]inden-1-one] | 150 ± 64 | 1050 ± 284
